Test results published in article PMC5557811 (Scientific Reports, 2017).
pIC50: −log10 of the molar value. Entries after “also recorded” stand apart in the source; their conditions may differ.

What was measured:
[1] = system: SdhB; format: binding, Fusarium graminearum
[2] = system: yeast strain Y2HGold; experiment: Bait toxicity test in yeast; format: cell-based, Saccharomyces cerevisiae; conditions: pGBKT7::Mtk vs pGBKT7 empty vector, growth on SDO/–Trp plates; data not shown
[3] = system: SDH activity of P. indica mitochondrial SQR (complex II); format: biochemical, Piriformospora indica
[4] = system: β(1,3)-glucanosyltransferase Gel1; conditions: cited from earlier work
[5] = system: SDH activity of F. graminearum mitochondrial SQR (complex II); format: biochemical, Fusarium graminearum; conditions: absorbance 600 nm, 25 °C
[6] = system: Fusarium graminearum; conditions: in vivo; cited from earlier work
[7] = system: Piriformospora indica; conditions: cited from earlier work
Excerpt: (§1) Insects are well protected against pathogens by an immunity-related arsenal of effector molecules including antimicrobial peptides (AMPs). Some AMPs are active against a broad spectrum of microbes, whereas the activity of others is restricted to certain types of bacteria or fungi. Insects produce a large number of antifungal peptides to protect them against fungal pathogens and parasites, and these peptides often interact with intracellular targets to inhibit key physiological processes such as DNA and protein synthesis, cell cycle progression and metabolic activity[1]–[3]. AMPs therefore offe ...

[8] = system: Blumeria graminis f. sp. hordei; conditions: cited from earlier work
Excerpt: as §1

[9] = system: Fusarium graminearum; conditions: read-out: IC50 against F. graminearum; cited from earlier work

Substance: metchnikowin (HRHQGPIFDTRPSPFNPNQPRPGPIY; Metchnikowin synthetic; UniProt Q24395 27-52, looked up) [Mtk, 26-residue proline-rich linear antifungal peptide from Drosophila melanogaster; synthetic Mtk from Pepmic used in SDH assay]
- YFP fluorescence of Mtk constructs without a fusion partner (auto-activation) ([1]; Mtk constructs with YFPCempty or YFPNempty, cytoplasm and nucleus): produced YFP fluorescence in both the cytoplasm and nucleus
- YFP fluorescence on co-expression of Mtk and SdhB ([1]; Nicotiana benthamiana leaves, 3 days after injection, Mtk and SdhB YFP fusions): did not result in detectable YFP fluorescence
- toxicity towards yeast cells [2]: not independently toxic
- reduction in mitochondrial SDH activity [3]: unaffected; also recorded: no reduction was observed; also recorded: did not inhibit
- interference with F. graminearum cell wall biosynthesis by targeting Gel1 [4]: interferes with F. graminearum cell wall biosynthesis
- reduction in mitochondrial SDH activity, significance by concentration ([5]; Mtk 2, 1, 0.5, 0.25, 0.12 and 0.06 µM, all concentrations except the lowest, 30 min, vs control without Mtk, means of three independent experiments): All concentrations except the lowest caused significant reductions
- maximal inhibition of mitochondrial SDH activity ([5]; synthetic Mtk, tested at 0.06, 0.12, 0.25, 0.5, 1 and 2 µM, isolated mitochondria, DCIP colorimetric, kinetic 30 min, relative to control (0 µM peptide = 100%), mean of three independent experiments, in triplicate): up to 52%
- antifungal activity when expressed in barley [6]: acts specifically against
- antifungal activity when expressed in barley [7]: inactive
- antifungal activity when expressed in barley [8]: acts specifically against
- pIC50 [9]: 6.00
